In US20110077270A1, “Compositions and Methods for Treating Ocular Inflammation with Lower Risk of Increased Intraocular Pressure” (priority 2009, published 2011):
Values joined by “and” are separate entries in the source; they are usually repeats but may differ in a detail not shown here. Equal entries are not always repeated.

Experiments:
[1] = test system: human corneal epithelial cells (HCECs); assay: IL-1β-stimulated cytokine production in primary human corneal epithelial cells (30-cytokine Luminex kit); settings: IL-1β-stimulated HCECs, 18 h
Procedure: Primary HCECs were seeded in 24-well plates. […] Each treatment was performed in triplicate. Media were collected and used for determination of cytokine content using a 30-cytokine Luminex kit.
Median fluorescence intensity (WI) was used to obtain the concentration of each cytokines in pg/ml based on the standard curve of each cytokine assayed by Luminex. The linear range of the standard curve for each cytokine was used for determination of cytokine concentration. Duplicate values for each sample were averaged. Data were expressed as mean±SD. Statistical analysis was performed using one-way ANOVA-Dunnett's test, and P<0.05 was considered statistically significant.

[2] = test system: protein concentration in the aqueous humor; assay: Protein measurement in aqueous humor, rabbit paracentesis model; assay type: in vivo; settings: for Protein level in aqueous humor, Mean / Protein level in aqueous humor: second paracentesis; for Protein level in aqueous humor, Mean: group mean; for Protein level in aqueous humor: individual eye
Procedure: Each rabbit was placed in a restraint device and tagged with the alphanumeric code. The formulations were instilled (50 μl) into the conjunctival sac of both eyes 180, 120, 90 and 30 min before the first paracentesis; then 15, 30, 90 min after the first paracentesis. To perform the first paracentesis the animals were anaesthetized by intravenous injection of 5 mg/kg Zoletil® (Virbac; 2.5 mg/kg tiletamine HCl and 2.5 mg/kg zolazepam HCl) and one drop of local anesthetic (Novesina®, Novartis) was administered to the eye. Anterior chamber paracentesis was performed with a 26 G needle attached to a tuberculin syringe; the needle was introduced into the anterior chamber through the cornea, taking care not to damage the tissues. Two hours after the first paracentesis, the animals were sacrificed with 0.4 ml Tanax® (Intervet International B.V.) and the second paracentesis was performed. About 100 μl of aqueous humor were removed at the second paracentesis. Aqueous humor was immediately split in four aliquots and stored at −80° C. until analysis. Then both eyes were enucleated and the iris-ciliary body was carefully excised, placed in polypropylene tubes, and stored at −80° C. until analysis.
For protein concentration determination in the aqueous humor we used the Protein Quantification Kit (Fluka; Cat. No. 77371; Lot. No. 1303129). Five microliters of aqueous humor were diluted to 100 μl with water. Twenty microliters of samples and of standards were load into a 96-well plate and recorded in a plate layout. Samples were treated following the assay procedure described in the kit. A microplate reader (GDV, Italy; model DV 990 B/V6) set at 670 nm was used for making the calibration and analyzing the samples.

SMILES	Potency of inhibition of IL-1β-stimulated production of GM-CSF, IL-8, and RANTES relative to dexamethasone [1]	Inhibition of IL-1β-stimulated cytokine production on 6 cytokines (IL-6, IL-7, MCP-1, TGF-α, TNF-α and VEGF) ([1]; comparable potency of both)	Protein level in aqueous humor, Mean ([2]; 0.1% topical formulation) [mg/mL]	Protein level in aqueous humor ([2]; 0.1% topical formulation, listed as BOL)	Protein, p vs CTR ([2]; 0.5% topical formulation)	Protein level in aqueous humor, Mean ([2]; 0.5% topical formulation) [mg/mL]	Protein level in aqueous humor ([2]; 0.5% topical formulation, listed as BOL)	Protein level in aqueous humor, Mean ([2]; 1% topical formulation) [mg/mL]	Protein level in aqueous humor ([2]; 1% topical formulation, listed as BOL)	Protein level in aqueous humor ([2]; 0.1% topical formulation)
Cc1ccc2c(NCC(O)(CC(C)(C)c3cc(F)cc4c3OCC4)C(F)(F)F)cccc2n1 (centres unmarked) [BOL-303242-X]	less potency compared to dexamethasone	significantly inhibited	33.667	34.87 mg/mL and 34.41 mg/mL and 31.14 mg/mL and 22.82 mg/mL and 29.46 mg/mL and 31.69 mg/mL and 35.70 mg/mL and 49.25 mg/mL	< 0.05	28.844	33.98 mg/mL and 33.65 mg/mL and 19.99 mg/mL and 27.11 mg/mL and 19.72 mg/mL and 36.35 mg/mL and 27.71 mg/mL and 32.24 mg/mL	21.435	20.99 mg/mL and 21.48 mg/mL and 15.11 mg/mL and 20.28 mg/mL and 20.94 mg/mL and 21.89 mg/mL and 20.03 mg/mL and 30.76 mg/mL	–
C[C@@H]1C[C@H]2[C@@H]3CCC4=CC(=O)C=C[C@]4(C)[C@@]3(F)[C@@H](O)C[C@]2(C)[C@@]1(O)C(=O)CO [Dex, dexamethasone, reference compound]	–	–	33.457	–	–	–	–	–	–	31.31 mg/mL and 31.81 mg/mL and 35.95 mg/mL and 37.15 mg/mL and 32.12 mg/mL and 32.40 mg/mL
